The values below come from ChEMBL document CHEMBL1201862, “PubChem BioAssay data set” (2004).

Test systems include K562; SF-539; A498; A549; SR; NCI-H23; SK-MEL-5; HOP-92; RXF 393; SNB-19; NCI-H522; HCT-15; MOLT-4; NCI-H460; CAKI-1; Malme-3M; SW-620; RPMI-8226; DMS-114; SNB-78.
What all share (test): growth of human tumour cells (NCI), 48 h

Each structure is given as a SMILES string.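 Results reflect a 48-hour exposure of cells in 96-well plates to compound at five concentrations. GI50 marks 50% less growth.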 The source made the active and inactive calls. Cut-off read from the data, not from the text of the source: active = GI50 up to about 1.1 µM and inactive = higher. Where only a bound is given, the exact number is not on record here.

`CC(NC(=O)C(NC(=O)CNC(=O)OC(C)(C)C)C(C)C)C(=O)Oc1c(Cl)c(Cl)c(Cl)c(Cl)c1Cl` (configuration not stated): the GI50 was 50.7 µM (inactive) in the experiment with K562; 17.5 µM (inactive) in the experiment on SF-539; 21.8 µM (inactive) in the experiment on A498; 22.4 µM (inactive) with A549; 71 µM (inactive) with SR; 14 µM (inactive) with NCI-H23. Besides, the GI50 with SK-MEL-5 was 17.1 µM (inactive); in the experiment with HOP-92, 16.3 µM (inactive); in the experiment on RXF 393, 17.5 µM (inactive); with SNB-19, 30.8 µM (inactive); with NCI-H522, 23.9 µM (inactive); with HCT-15, 17.5 µM. The GI50 in the experiment with MOLT-4 was 34.6 µM (inactive); in the experiment with NCI-H460, 18.6 µM (inactive); with CAKI-1 it was 19 µM (inactive); in the experiment with Malme-3M, 21.5 µM (inactive); in the experiment with SW-620, 24.7 µM (inactive); with RPMI-8226, 45.2 µM (inactive).

Consider `Cc1cc(OCC(O)CO)ccc1Cl` (configuration not stated), for which the GI50 in the experiment on K562 is > 100 µM (inactive); with SF-539, > 100 µM (inactive); with A498, > 100 µM (inactive); in the experiment on A549 it was > 100 µM (inactive); in the experiment on DMS-114, > 100 µM (inactive); in the experiment with SR it was 60.1 µM (inactive). Moreover, the GI50 in the experiment with NCI-H23, in the experiment with SK-MEL-5, in the experiment with HOP-92, in the experiment on RXF 393, with SNB-19 and with NCI-H522 was > 100 µM (inactive) each time. Also, the GI50 with HCT-15 was > 100 µM; in the experiment with MOLT-4 it was > 100 µM (inactive); in the experiment on NCI-H460, > 100 µM (inactive); in the experiment with CAKI-1 it was > 100 µM (inactive); with Malme-3M it was > 100 µM (inactive); in the experiment on SW-620, > 100 µM (inactive). For the same compound, in the experiment with RPMI-8226, the GI50 was > 100 µM (inactive).

`CC1=CC2=C(C=O)C(=O)[C@](C)(O)[C@@H](O)C2=CO1`: the GI50 in the experiment with K562 is 27.9 µM (inactive); in the experiment with SF-539 it was 29.4 µM (inactive); in the experiment on A498, 24.3 µM (inactive); in the experiment with A549, 28 µM (inactive); with NCI-H23 it was 37.2 µM (inactive); in the experiment with SK-MEL-5 it was 24.6 µM (inactive). The GI50 in the experiment on HOP-92 was > 65.5 µM (inactive); with RXF 393, 16.7 µM (inactive); with SNB-19 it was 0.982 µM (active); in the experiment with NCI-H522, 17.2 µM (inactive); in the experiment on HCT-15, 28.8 µM; with MOLT-4, 15.6 µM (inactive). In addition, the GI50 is 38.5 µM (inactive) with SNB-78; 29.9 µM (inactive) in the experiment on NCI-H460; 33.5 µM (inactive) in the experiment on CAKI-1; 26.4 µM (inactive) in the experiment with Malme-3M; 29.4 µM (inactive) in the experiment on SW-620; 15.9 µM (inactive) in the experiment on RPMI-8226.

Consider `COC(=O)/C(=C\c1ccco1)P(=O)(OC)OC`, for which the GI50 in the experiment with K562 is > 100 µM (inactive); with SF-539, 32.5 µM (inactive); in the experiment with A498 it was 54.3 µM (inactive); in the experiment on A549 it was 85.1 µM (inactive); with SR, 52.8 µM (inactive); with NCI-H23 it was 30.5 µM (inactive). Moreover, the GI50 is 62.4 µM (inactive) in the experiment with SK-MEL-5; 25.2 µM (inactive) with HOP-92; 24.4 µM (inactive) in the experiment on RXF 393; 65.2 µM (inactive) with SNB-19; 2.49 µM (inactive) in the experiment with NCI-H522; 75.5 µM in the experiment on HCT-15. The GI50 is > 100 µM (inactive) in the experiment on MOLT-4; 48.3 µM (inactive) with NCI-H460; 25.2 µM (inactive) with CAKI-1; 16.4 µM (inactive) in the experiment on Malme-3M; 89.5 µM (inactive) in the experiment on SW-620; 67.8 µM (inactive) in the experiment with RPMI-8226.

`COc1ccc(NC(=O)/C(=C/c2ccc(N(CCC#N)CCC#N)cc2)NC(=O)c2cc([N+](=O)[O-])ccc2Cl)cc1`: the GI50 is 6.76 µM (inactive) in the experiment on K562; 18.9 µM (inactive) in the experiment on SF-539; 15.5 µM (inactive) in the experiment with A549; 74.1 µM (inactive) in the experiment with SR; > 100 µM (inactive) in the experiment with NCI-H23; > 100 µM (inactive) in the experiment with SK-MEL-5. For the same compound, the GI50 in the experiment with HOP-92 was > 100 µM (inactive); in the experiment on RXF 393 it was > 100 µM (inactive); with SNB-19, > 100 µM (inactive); in the experiment with NCI-H522 it was 4.27 µM (inactive); with HCT-15 it was 4.62 µM; in the experiment on MOLT-4, 83.8 µM (inactive). For the same compound, the GI50 with SNB-78 was > 100 µM (inactive); in the experiment with CAKI-1, 26.2 µM (inactive); in the experiment with Malme-3M, > 100 µM (inactive); with SW-620, 98.6 µM (inactive); in the experiment on RPMI-8226, > 100 µM (inactive).

With `CN(C)C(=S)/N=C1\SC(=N\c2ccccc2)/C(=N/c2ccccc2)N1c1ccc([N+](=O)[O-])cc1`, the GI50 in the experiment with K562, in the experiment on A498, with SR, in the experiment on NCI-H23, in the experiment with SK-MEL-5 and in the experiment on HOP-92 was > 100 µM (inactive) throughout. Further, the GI50 in the experiment with RXF 393 is 21.8 µM (inactive); in the experiment with SNB-19 it was > 100 µM (inactive); in the experiment on NCI-H522, > 100 µM (inactive); in the experiment on HCT-15, > 100 µM; in the experiment with MOLT-4, 38.5 µM (inactive); in the experiment on NCI-H460 it was > 100 µM (inactive). The GI50 in the experiment with CAKI-1, with Malme-3M and in the experiment on RPMI-8226 was > 100 µM (inactive) throughout.

Turning to `CC1(C)O[C@H](C(=O)O)[C@@H](C(=O)O)O1`, the GI50 with K562, in the experiment with SF-539, with A498, in the experiment on A549, in the experiment with SR and in the experiment with SK-MEL-5 was > 100 µM (inactive) in each case. The GI50 in the experiment with HOP-92 is > 100 µM (inactive); in the experiment with RXF 393, > 100 µM (inactive); with SNB-19, > 100 µM (inactive); in the experiment on NCI-H522, > 100 µM (inactive); in the experiment with HCT-15, > 100 µM; in the experiment on MOLT-4, > 100 µM (inactive). The GI50 with NCI-H460, in the experiment with CAKI-1, in the experiment with Malme-3M, in the experiment on SW-620 and in the experiment on RPMI-8226 was > 100 µM (inactive) each time.

For the compound `Cn1c2c(c3ccccc31)CCN(CCCN1CCN(c3ccccc3)CC1)C2=O`, the GI50 in the experiment on K562 was 17.3 µM (inactive); with SF-539, 17.6 µM (inactive); with A498, 18.5 µM (inactive); in the experiment with A549, 23.6 µM (inactive); with DMS-114, 16.9 µM (inactive); in the experiment on NCI-H23, 20.5 µM (inactive). The GI50 is 18.9 µM (inactive) in the experiment on SK-MEL-5; 15.7 µM (inactive) in the experiment with HOP-92; 15.8 µM (inactive) in the experiment with RXF 393; 14.3 µM (inactive) with NCI-H522; 19.1 µM with HCT-15; 13.3 µM (inactive) in the experiment with MOLT-4. Also, the GI50 in the experiment on CAKI-1 was 16.7 µM (inactive); with SW-620 it was 22.1 µM (inactive); in the experiment on RPMI-8226, 16 µM (inactive).

Regarding `COc1ccc(-c2cc(O)c3cc(C)cnc3n2)cc1`, the GI50 in the experiment on K562 was 2.29 µM (inactive); with SF-539, 6.41 µM (inactive); in the experiment with A498 it was 7.29 µM (inactive); in the experiment on A549 it was 8.65 µM (inactive); with NCI-H23, 6.19 µM (inactive); with HOP-92, 13.8 µM (inactive). Further, the GI50 with RXF 393 was 7.94 µM (inactive); with SNB-19, > 100 µM (inactive); in the experiment on NCI-H522 it was 4.01 µM (inactive); in the experiment on HCT-15 it was 3.23 µM; in the experiment with MOLT-4 it was 4.43 µM (inactive); in the experiment on CAKI-1 it was 6.11 µM (inactive). The GI50 in the experiment with Malme-3M was 4.67 µM (inactive); in the experiment on SW-620 it was 3.24 µM (inactive); in the experiment on RPMI-8226, 3.73 µM (inactive).
